This test concerns the target protein kinase C. Nature of the test: enzyme assay of protein kinase C activated with phosphatidylserine and diacylglycerol (according to EP-OS 0,255,126). The test is classed as biochemical. To be noted: read-out: 50% inhibition at a concentration of. The method, then: The compounds according to the invention are potent inhibitors of protein kinases, such as protein kinase C. […] The experiment was carried out according to EP-OS 0,255,126 (inhibition of protein kinase C). Admittedly, indolocarbazoles have already been described as inhibitors of protein kinase C (J Antibiotic 30:275, 1977; Biochem Biophys Res Commun 135:397, 1986). However, it is thereby mainly a question of indolocarbazole-N,N-glycosidesof microbial or semisynthetic origin.

pIC50: −log10 of the molar value.

Regarding “2 (and 10)-Chloro-12-ethyl-6,7,12,13-tetrahydro-5-oxo-5H-indolo[2,3-a]pyrrolo[3,4-c]carbazole [Example 3.a]”, the pIC50 was 6.51.
